Test results: ChEMBL document CHEMBL1201862, “PubChem BioAssay data set” (2004)
The source made the active and inactive calls.

Experiments:
[1] = inhibitors of HIV Env-driven cell fusion, dose response, cherry-pick (AID 652057); assay type: functional, cell-based
[2] = CEM21 lymphoblast cell cytotoxicity, dose response, cytotoxicity control for viral fusion inhibitor project, CellTiter-Glo luminescence, cherry-picked (AID 652042); assay type: functional, cell-based;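 note: potency for signal decrease meaning cytotoxicity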
[3] = ZM109 Env clade C HIV-1 fusion inhibitors, dose response, HeLa effector, CEM target cells, luciferase, cherry-pick (AID 652058); assay type: functional, cell-based
[4] = inhibitors of clade B AD8 Env fusion, dose response, cell-based, cherry-pick (AID 652062); assay type: functional;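 note: luciferase signal from cell-cell fusion driven by HIV-1 clade B AD8 Env; potency is for inhibitors of fusion seen as a drop in luminescence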
[5] = off-target signal loss in HeLa-CEM21 co-culture – HeLa F-luc CTL cells, cherry-picked, counter-screen for HIV-1 Env fusion inhibitor project, dose response (AID 652040); assay type: functional, cell-based;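 note: potency for signal decrease marking cytotoxic or nonspecific inhibition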
[6] = target: T1, DNA repair protein RAD52 homolog (Homo sapiens, UniProt P43351); assay type: functional, biochemical
T1 sequence (P43351 whole entry): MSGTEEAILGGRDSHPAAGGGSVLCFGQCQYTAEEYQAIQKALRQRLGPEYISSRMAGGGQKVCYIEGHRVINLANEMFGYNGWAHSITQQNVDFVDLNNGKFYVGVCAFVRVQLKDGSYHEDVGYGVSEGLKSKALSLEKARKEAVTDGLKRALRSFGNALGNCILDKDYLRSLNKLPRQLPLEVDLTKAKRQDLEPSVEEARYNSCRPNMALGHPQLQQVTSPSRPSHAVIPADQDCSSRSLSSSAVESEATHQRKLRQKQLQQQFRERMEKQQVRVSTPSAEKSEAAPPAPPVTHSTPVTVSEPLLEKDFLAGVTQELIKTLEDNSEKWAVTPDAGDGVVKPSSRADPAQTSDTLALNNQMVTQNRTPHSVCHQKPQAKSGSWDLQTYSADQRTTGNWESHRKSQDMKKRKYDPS

[7] = target: T2, Histone-lysine N-methyltransferase NSD2 (Homo sapiens, UniProt O96028); assay type: biochemical
T2 sequence (O96028 whole entry): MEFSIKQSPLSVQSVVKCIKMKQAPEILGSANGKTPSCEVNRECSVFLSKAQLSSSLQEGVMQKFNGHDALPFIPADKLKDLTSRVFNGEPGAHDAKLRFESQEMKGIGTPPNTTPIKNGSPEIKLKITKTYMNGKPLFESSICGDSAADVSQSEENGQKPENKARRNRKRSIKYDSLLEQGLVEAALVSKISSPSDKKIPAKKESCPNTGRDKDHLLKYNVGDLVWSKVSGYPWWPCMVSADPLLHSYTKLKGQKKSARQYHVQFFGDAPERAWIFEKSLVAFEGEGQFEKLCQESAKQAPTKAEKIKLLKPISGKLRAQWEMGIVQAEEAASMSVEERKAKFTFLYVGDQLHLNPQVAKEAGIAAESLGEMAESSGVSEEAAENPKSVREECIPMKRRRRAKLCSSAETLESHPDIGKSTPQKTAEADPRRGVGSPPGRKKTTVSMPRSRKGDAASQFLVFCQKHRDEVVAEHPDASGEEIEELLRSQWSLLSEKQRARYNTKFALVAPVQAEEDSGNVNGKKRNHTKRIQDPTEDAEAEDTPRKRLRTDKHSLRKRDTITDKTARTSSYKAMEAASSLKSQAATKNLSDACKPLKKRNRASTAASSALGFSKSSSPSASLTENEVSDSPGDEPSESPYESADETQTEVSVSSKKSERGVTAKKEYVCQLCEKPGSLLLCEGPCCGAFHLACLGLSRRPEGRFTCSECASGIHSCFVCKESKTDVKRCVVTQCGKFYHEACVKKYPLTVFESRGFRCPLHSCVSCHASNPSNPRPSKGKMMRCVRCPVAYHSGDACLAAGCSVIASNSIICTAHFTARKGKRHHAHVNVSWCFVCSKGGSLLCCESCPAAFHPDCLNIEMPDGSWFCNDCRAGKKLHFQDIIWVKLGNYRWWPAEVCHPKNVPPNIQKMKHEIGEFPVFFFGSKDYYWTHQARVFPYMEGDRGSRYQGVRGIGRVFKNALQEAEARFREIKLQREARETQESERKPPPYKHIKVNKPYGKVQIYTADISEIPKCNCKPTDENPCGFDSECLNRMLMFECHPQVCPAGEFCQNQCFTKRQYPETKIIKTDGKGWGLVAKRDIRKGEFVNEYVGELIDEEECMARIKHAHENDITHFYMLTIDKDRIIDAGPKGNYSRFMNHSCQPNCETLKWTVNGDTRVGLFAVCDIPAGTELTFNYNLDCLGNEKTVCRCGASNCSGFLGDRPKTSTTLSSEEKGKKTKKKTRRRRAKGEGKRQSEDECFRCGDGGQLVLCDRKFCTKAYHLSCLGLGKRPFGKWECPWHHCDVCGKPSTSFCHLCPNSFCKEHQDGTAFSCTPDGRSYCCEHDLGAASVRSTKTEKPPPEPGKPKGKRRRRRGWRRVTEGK

[8] = target: T3, Sentrin-specific protease 8 (Homo sapiens, UniProt Q96LD8); assay type: functional;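 note: luminescence read-out of SENP8 inhibition, dose-response confirmation following an ultra-high-throughput screen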
T3 sequence (Q96LD8 whole entry): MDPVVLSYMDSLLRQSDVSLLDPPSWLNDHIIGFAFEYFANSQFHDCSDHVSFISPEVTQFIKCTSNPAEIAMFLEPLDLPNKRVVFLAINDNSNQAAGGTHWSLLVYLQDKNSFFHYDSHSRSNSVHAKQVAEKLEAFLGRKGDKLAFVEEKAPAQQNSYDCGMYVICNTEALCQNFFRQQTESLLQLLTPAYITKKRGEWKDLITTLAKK

[9] = target: T4, Sentrin-specific protease 6 (Homo sapiens, UniProt Q9GZR1); assay type: functional;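 note: Luminescence-based dose-response confirmatory assay of SENP6 inhibition, following up an ultra-high-throughput screen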
T4 sequence (Q9GZR1 whole entry): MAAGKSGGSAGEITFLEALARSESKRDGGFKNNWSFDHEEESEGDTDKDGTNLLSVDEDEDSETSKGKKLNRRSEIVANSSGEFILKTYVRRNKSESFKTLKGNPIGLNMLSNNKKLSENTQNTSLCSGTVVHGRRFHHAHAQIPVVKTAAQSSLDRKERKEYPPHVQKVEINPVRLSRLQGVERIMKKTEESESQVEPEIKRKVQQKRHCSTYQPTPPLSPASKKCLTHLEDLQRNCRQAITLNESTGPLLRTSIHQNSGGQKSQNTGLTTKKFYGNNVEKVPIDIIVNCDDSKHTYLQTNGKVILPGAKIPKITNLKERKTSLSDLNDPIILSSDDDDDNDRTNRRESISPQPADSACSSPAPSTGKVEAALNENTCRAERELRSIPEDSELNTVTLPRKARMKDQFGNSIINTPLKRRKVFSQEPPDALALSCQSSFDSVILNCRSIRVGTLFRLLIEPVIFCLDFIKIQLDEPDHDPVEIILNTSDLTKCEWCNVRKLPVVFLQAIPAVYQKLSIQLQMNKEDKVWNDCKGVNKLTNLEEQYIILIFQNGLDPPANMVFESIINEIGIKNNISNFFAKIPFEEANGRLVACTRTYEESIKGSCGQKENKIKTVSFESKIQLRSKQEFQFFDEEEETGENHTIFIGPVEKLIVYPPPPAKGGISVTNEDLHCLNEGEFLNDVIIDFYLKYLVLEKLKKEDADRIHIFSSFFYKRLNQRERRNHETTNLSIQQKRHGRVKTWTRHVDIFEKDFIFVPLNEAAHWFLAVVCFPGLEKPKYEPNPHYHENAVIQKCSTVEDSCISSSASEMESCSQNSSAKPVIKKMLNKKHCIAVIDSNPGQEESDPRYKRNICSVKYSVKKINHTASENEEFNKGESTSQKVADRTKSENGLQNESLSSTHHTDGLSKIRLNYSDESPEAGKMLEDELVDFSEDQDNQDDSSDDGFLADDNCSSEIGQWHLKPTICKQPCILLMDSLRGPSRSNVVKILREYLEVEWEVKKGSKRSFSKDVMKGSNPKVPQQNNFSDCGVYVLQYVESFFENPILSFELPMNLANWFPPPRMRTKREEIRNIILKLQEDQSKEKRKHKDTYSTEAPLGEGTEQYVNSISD

[10] = target: T5, Sentrin-specific protease 7 (Homo sapiens, UniProt Q9BQF6); assay type: functional;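 note: Luminescence-based dose-response confirmation of ultra-high-throughput screening hits, measuring inhibition of SENP7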
T5 sequence (Q9BQF6 whole entry): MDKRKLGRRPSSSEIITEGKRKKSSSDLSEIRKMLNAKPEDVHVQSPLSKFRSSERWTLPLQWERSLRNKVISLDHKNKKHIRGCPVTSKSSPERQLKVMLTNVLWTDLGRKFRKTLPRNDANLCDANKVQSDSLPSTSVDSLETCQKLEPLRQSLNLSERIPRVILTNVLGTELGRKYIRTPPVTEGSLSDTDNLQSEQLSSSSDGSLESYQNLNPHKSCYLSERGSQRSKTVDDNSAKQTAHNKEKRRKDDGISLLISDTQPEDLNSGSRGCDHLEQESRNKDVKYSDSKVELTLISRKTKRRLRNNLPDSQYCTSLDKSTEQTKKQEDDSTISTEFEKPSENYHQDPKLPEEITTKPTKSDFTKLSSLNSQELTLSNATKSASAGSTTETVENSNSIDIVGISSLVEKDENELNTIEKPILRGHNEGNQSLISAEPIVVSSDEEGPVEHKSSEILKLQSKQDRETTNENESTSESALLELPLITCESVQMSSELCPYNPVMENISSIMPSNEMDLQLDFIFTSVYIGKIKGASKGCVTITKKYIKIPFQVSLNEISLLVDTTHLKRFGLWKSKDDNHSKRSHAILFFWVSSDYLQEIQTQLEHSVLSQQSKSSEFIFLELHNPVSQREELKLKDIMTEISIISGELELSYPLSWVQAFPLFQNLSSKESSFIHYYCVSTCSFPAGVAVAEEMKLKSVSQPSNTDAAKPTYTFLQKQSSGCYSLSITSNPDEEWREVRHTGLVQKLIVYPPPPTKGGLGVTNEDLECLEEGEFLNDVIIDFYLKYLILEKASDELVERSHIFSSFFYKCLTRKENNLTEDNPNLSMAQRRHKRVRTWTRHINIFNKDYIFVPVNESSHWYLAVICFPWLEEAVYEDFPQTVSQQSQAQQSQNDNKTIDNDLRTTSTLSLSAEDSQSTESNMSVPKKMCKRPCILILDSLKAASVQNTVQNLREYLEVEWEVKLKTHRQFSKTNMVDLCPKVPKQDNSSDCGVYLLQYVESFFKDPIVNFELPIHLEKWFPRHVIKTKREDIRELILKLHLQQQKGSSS

[11] = P. falciparum ATP4 D1247Y mutant growth inhibitors, dose response, NITD609-resistant line, SYBR Green, dry powder (AID 1159571); assay type: functional, cell-based;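 note: parasites synchronized at ring stage by sorbitol before testing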
[12] = P. falciparum 3D7-ScDHODH growth inhibitors, dose response, SYBR Green, dry powder samples (AID 1159570); assay type: functional, cell-based;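 note: parasite growth measured after 72 hours of compound exposure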
[13] = P. falciparum Dd2 growth inhibitors, dose response, SYBR Green, dry powder samples (AID 1159566); assay type: functional, cell-based;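 note: potency for growth inhibition with lower SYBR green DNA signal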
[14] = P. falciparum Dd2 growth inhibitors, dose response, SYBR Green, cherry-picked samples (AID 1159567); assay type: functional, cell-based
[15] = tested on: HEK293; assay: cells; assay type: functional, cell-based; settings: Homo sapiens
[16] = tested on: HEK293; assay: cells; assay type: functional, cell-based; settings: Homo sapiens; remark: listed apart in the source
[17] = tested on: HEK293; assay: NOD1 signaling inhibitors, primary screen, cell-based, luminescence, uHTS (AID 1578); assay type: functional; settings: Homo sapiens
[18] = tested on: HEK293; assay: NOD2 signaling inhibitors in MDP-stimulated cells, cell-based, uHTS, luminescence (AID 2001); assay type: functional; settings: Homo sapiens

For `CCC(=O)Nc1ccc2c(c1)OC[C@H](C)N(CC1CCCCC1)C[C@H](C)[C@@H](OC)CN(C)C2=O`, the AC50 [1] was 2.93 µM (active), the AC50 [2] was 55.6 µM (active) and the AC50 [3] was 2.21 µM (active). For the same molecule, the AC50 [4] was 4.48 µM (active).

In the case of `C[C@H](CO)N1C[C@H](C)[C@H](CN(C)C(=O)N[C@H](C)c2ccccc2)OCc2ccccc2-c2c(n(C)c3ccccc23)C1=O`, the AC50 [5] is reported as 1.53 µM (active), the AC50 [1] is reported as 0.975 µM (active) and the AC50 [2] is reported as 64.6 µM (active). For the same molecule, the AC50 [3] was 1.62 µM (active) and the AC50 [4] was 1.07 µM (active).

With `CN1CCN(c2ccc(N)cc2Cl)CC1` the AC50 [6] was 0.931 µM (active) and the AC50 [7] was > 20 µM (inactive).

For `CC(C)(C)c1ccc(C(=O)NCCOc2ccccc2)cc1`, the IC50 [8] was > 100 µM (inactive), the IC50 [9] was > 100 µM (inactive) and the IC50 [10] was 5.62 µM (active).

For `C[C@@H]1CN([C@@H](C)CO)C(=O)c2cccc(NC(=O)Nc3ccc4c(c3)OCO4)c2O[C@@H]1CN(C)C(=O)Nc1ccc2c(c1)OCO2`, the AC50 [11] was 0.865 µM (active), the AC50 [12] was 1.52 µM (active) and the AC50 [13] was 0.954 µM (active). For the same molecule, the AC50 [14] was 1.2 µM (active).

With `Cc1c(NS(=O)(=O)c2ccc3c(c2)OCCO3)cccc1-c1nc2cccnc2s1` the IC50 [15] was 5.27 µM (active), the IC50 [16] was 10.9 µM (active) and the EC50 [17] was 4.14 µM (active). For the same molecule, the IC50 [18] was 4.02 µM (active).
